GI50 and TGI data for 6 compounds are collected here from PubChem BioAssay (NCI).

Holding throughout (assay): NCI tumour cell line growth inhibition, 48 h
Test [1] has as its system HCT-15 colon.
Test [2] relates to UO-31 renal.
Test [3] deals with OVCAR-5 ovarian.
Test [4] has as its system A498 renal.
For test [5], the system named is 786-0 renal.
Test [6] relates to OVCAR-4 ovarian.
For test [7], the system named is EKVX NSCLC.
The subject of test [8] is MDA-MB-231 breast.
The test system of test [9] is SK-OV-3 ovarian.
Test [10] concerns SK-MEL-28 melanoma.

Values joined by “and” are separate entries in the source; they are usually repeats but may differ in a detail not shown here. Identical values can stand only once.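 48-hour exposure; five concentrations; linearly interpolated endpoints. GI50 is the concentration that inhibits growth by half. At the TGI there is no net growth.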

For the compound `CCN(CC)CCC(=O)O[C@H]1CC[C@H](CC(C)[C@H]2CC(=O)C(C)C=C(C)[C@H](OC(=O)CCN(CC)CC)C(OC)C(=O)[C@@H](C)CC(C)/C=C/C=C/C=C(C)C(OC)CC3CC[C@H](C)[C@](O)(O3)C(=O)C(=O)N3CCCCC3C(=O)O2)CC1OC` (some centres not stated), the GI50 is 0.0922 µM in [1]; 0.00067 µM and 0.00513 µM in test [2]; 1.63 µM in [3]; 0.00163 µM in [6]; 0.00704 µM in [7]; 1.86 µM in test [8]. In addition, the TGI in test [1] is 4.46 µM and 3.84 µM; in test [2] it was 3.08 µM and 1.51 µM; in test [3], 8.16 µM and 7.73 µM; in test [4], 1.11 µM; in [5], 2.47 µM and 1.72 µM; in test [6], > 10 µM and 2.46 µM. Besides, the TGI in test [7] is greater than 10 µM; in test [8], 8.14 µM and 1.74 µM; in test [9] it was 5.53 µM; in test [10], 1.95 µM.

In the case of `O=C1C=C(OCCCl)C(=O)c2c(O)ccc(O)c21`, the GI50 was 1.4 µM in test [1]; 1.95 µM in test [2]; 2.01 µM in [3]; 2.38 µM in [4]; 2.52 µM in test [5]; 3.29 µM in test [8]. Also, the GI50 in test [9] is 25.2 µM; in test [10], 2.08 µM. For the same compound, the TGI was 0.433 µM and 3.15 µM in [1]; 2.76 µM and 4.5 µM in [2]; 2.98 µM and 3.56 µM in test [3]; 2.55 µM and 4.25 µM in test [4]; 3.22 µM and 6.75 µM in test [5]; 3.01 µM and 3.1 µM in [6]. Further, the TGI in [7] is 3.36 µM and 3.73 µM; in test [8], 3.27 µM and 8.96 µM.

In the case of `C=C1C(=O)O[C@H]2[C@H]1CC/C(CNC(=O)/C=C/c1ccc(Cl)cc1Cl)=C\CC[C@@]1(C)O[C@@H]21`, the GI50 was 1.01 µM in [1]; 1.03 µM in [2]; 1.85 µM in test [3]; 1.47 µM in test [4]; 1.2 µM in test [5]; 1.31 µM in test [6]. In addition, the GI50 in test [7] was 1.55 µM; in [8] it was 1.35 µM; in test [9], 3.33 µM; in [10], 1.32 µM. Also, the TGI in test [1] turned out to be 2.33 µM; in [2], 2.28 µM; in test [3] it was 4.1 µM; in [4] it was 3.87 µM; in [5], 2.56 µM; in [6], 3.01 µM. For the same compound, the TGI in [7] is 3.1 µM; in test [8], 3.18 µM; in [9], 13 µM; in [10], 2.93 µM.

As to `COc1ccc2c(c1)C=C1CSCC3=Cc4cc(OC)ccc4OC13O2`, the GI50 in test [1] is 0.359 µM; in test [2], 0.642 µM; in test [3], 0.757 µM; in [4], 0.23 µM; in test [5], 0.821 µM; in test [6] it was 1.54 µM. Besides, the GI50 in [7] is 3.14 µM; in test [8] it was 0.568 µM; in test [9], 0.671 µM; in test [10], greater than 28.2 µM. The TGI in test [1] was greater than 100 µM; in test [2] it was greater than 100 µM; in test [3] it was greater than 100 µM; in [4], 0.766 µM; in test [5] it was greater than 100 µM; in test [6] it was greater than 100 µM. Moreover, the TGI in [7], in test [8], in test [9] and in [10] was greater than 100 µM throughout.

Consider `O=C1COCCN1c1ccc(NCc2cn(C(=O)c3ccc(Cl)cc3)c3ccccc23)cc1`, for which the GI50 in [1] was 4.07 µM; in test [2], 2.09 µM; in test [3] it was 0.187 µM; in test [4], 0.0306 µM; in [5], 2.7 µM; in [6], 0.494 µM. Further, the GI50 in test [7] was 17.2 µM; in test [8], 4.61 µM; in test [9] it was 2.27 µM; in [10] it was 17.8 µM. Moreover, the TGI is 91.2 µM in test [1]; 16.5 µM in test [2]; 0.622 µM in [3]; 0.142 µM in test [4]; greater than 100 µM in [5]; 18.8 µM in test [6]. Besides, the TGI is greater than 100 µM in test [7], 22.9 µM in test [8], 92.1 µM in [9] and 80.9 µM in test [10].

For `O=C1c2ccn(CCCCN(CCO)CCO)c2C(=O)c2c1c(O)c1ccccc1c2O`, the GI50 in [1] is 0.948 µM; in [2] it was 12.5 µM; in test [3], 19.1 µM; in test [4], 13.4 µM; in [5] it was 5.39 µM; in test [6], 31.7 µM. Further, the GI50 was 23.3 µM in [7], 1.89 µM in [8], 7.74 µM in [9] and 5.05 µM in [10]. Besides, the TGI in test [1] is 2.14 µM; in test [2], greater than 100 µM; in test [3] it was 45 µM; in test [4], 39.7 µM; in test [5], greater than 48.4 µM; in test [6], greater than 100 µM. Besides, the TGI in test [7] was greater than 75.7 µM; in test [8], 3.97 µM; in test [9], greater than 43.3 µM; in [10], greater than 100 µM.
